# Measured values as given in ChEMBL document CHEMBL3046068, “Design, synthesis, and biological activity of certain quinazolinedione derivatives as potent phosphodiestrase4 inhibitors” (Med Chem Res, 2012).
# Biological target: 3',5'-cyclic-AMP phosphodiesterase 4B (Homo sapiens) (UniProt Q07343)
# Assay: Inhibition of PDE4B (unknown origin) using FAM-cAMP as substrate at 10 uM after 60 min by fluorescence polarization assay
# Sequence of 3',5'-cyclic-AMP phosphodiesterase 4B (Homo sapiens) (Q07343 whole entry): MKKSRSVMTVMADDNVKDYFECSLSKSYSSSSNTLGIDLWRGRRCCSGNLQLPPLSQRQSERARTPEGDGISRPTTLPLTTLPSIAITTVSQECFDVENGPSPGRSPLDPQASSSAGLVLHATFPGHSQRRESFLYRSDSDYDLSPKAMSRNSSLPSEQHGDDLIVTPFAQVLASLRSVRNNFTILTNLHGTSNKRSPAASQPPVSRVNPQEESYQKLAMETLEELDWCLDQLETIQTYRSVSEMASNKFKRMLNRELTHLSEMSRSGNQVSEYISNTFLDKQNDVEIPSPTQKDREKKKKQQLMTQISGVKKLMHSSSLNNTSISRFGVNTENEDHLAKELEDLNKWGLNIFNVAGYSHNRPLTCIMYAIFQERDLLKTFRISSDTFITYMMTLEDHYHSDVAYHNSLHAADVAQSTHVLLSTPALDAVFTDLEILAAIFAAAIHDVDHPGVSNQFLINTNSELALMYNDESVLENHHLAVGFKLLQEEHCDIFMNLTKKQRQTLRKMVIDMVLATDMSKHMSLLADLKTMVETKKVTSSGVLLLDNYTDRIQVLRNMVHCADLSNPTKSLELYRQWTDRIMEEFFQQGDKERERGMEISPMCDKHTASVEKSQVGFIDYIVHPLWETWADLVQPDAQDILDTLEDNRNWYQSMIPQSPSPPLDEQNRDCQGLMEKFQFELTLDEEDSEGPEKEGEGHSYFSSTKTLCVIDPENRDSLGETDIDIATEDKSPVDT
row,SMILES,inhibition
1,CCCCn1c(=O)c2ccccc2n(CCN2CCN(c3ccccc3)CC2)c1=O,25%
2,CCCCn1c(=O)c2ccccc2n(CCCN2CCCCC2)c1=O,11%
3,CCCCn1c(=O)c2ccccc2n(CCN(CC)CC)c1=O,8%
4,CCCCn1c(=O)c2ccccc2n(CCCN2CCOCC2)c1=O,100%
5,CCCCn1c(=O)c2ccccc2n(Cc2ccccc2)c1=O,56%
6,CCCCn1c(=O)c2ccccc2n(CCN2CCCCC2)c1=O,11%
7,CCCCn1c(=O)c2ccccc2n(CC(=O)c2ccccc2)c1=O,22%
8,CCCCn1c(=O)c2ccccc2n(CCCN(CC)CC)c1=O,9%
9,CCCCn1c(=O)c2ccccc2n(CCCN2CCN(c3ccccc3)CC2)c1=O,13%
10,CCCCn1c(=O)c2ccccc2n(CC(=O)c2ccc(Cl)cc2)c1=O,8%
11,CCCCn1c(=O)c2ccccc2n(CCN2CCOCC2)c1=O,17%
